The values below come from patent publication US9469615B2, “Quinoxalines and AZA-quinoxalines as CRTH2 receptor modulators” (Merck Sharp & Dohme Corp., priority 2010, dated 2016).

As a reminder, the pKi is −log10 of the Ki, conventionally taken in molar units.

pKi: −log10 of the molar value.

This test has as its target T1, hCRTH2 (Homo sapiens, UniProt Q9Y5Y4).
T1 construct: expressed in transfected cells; host or cells: HEK (human embryonic kidney) cells expressing hCRTH2; membrane preparation
T1 sequence (Q9Y5Y4 1-395): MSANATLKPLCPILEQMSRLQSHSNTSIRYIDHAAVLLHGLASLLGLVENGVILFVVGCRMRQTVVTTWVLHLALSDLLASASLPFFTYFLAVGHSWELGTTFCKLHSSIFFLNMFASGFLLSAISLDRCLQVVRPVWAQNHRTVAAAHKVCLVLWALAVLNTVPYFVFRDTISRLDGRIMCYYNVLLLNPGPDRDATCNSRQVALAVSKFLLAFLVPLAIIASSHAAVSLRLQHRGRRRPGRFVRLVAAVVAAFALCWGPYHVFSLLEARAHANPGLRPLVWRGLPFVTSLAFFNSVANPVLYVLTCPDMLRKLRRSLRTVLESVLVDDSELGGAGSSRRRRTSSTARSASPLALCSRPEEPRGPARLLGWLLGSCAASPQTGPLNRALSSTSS
Description: Radioligand binding assay ([3H]PGD2 competition, HEK-hCRTH2 membranes). The gist of the method:
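Membranes (8-20 μg protein) from HEK-hCRTH2 cells were incubated 60 min at room temperature with 3.0 nM [3H]PGD2 in 50 mM Tris-HCl pH 7.4, 1 mM EDTA, 2 mM MnCl2, 1% DMSO. Non-specific binding defined with 10 μM PGD2. Bound radioactivity counted after filtration.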

[1] abbreviates: [3H]PGD2 binding, rated A-E (Table A).

Regarding `O=C(O)Cc1cccc(CCCc2nc3cc(C(=O)N[C@@H]4CCCc5ccccc54)ccc3nc2-c2ccc(F)cc2)c1` [compound 269, (R)-2-(3-(3-(3-(4-fluorophenyl)-7-((1,2,3,4-tetrahydronaphthalen-1-yl)carbamoyl)quinoxalin-2-yl)propyl)phenyl)acetic acid], the pKi ([3H]PGD2 competition, Table B) was 6.15 to 6.70.

With `O=C(O)CCCCc1nc2cc(C(=O)Nc3ccc(F)cc3)ccc2nc1-c1ccc(F)cc1` [5O, 3-(4-fluorophenyl)-7-[[(4-fluorophenyl)amino]carbonyl]-2-quinoxalinepentanoic acid], under setting [1], the pKi is 6.70 to 7.70.

The molecule `C[C@H](NC(=O)c1ccc2nc(-c3ccc(Cl)cc3)c(CCCCC(=O)O)nc2c1)c1ccc(F)cn1` [compound 435, (S)-5-(3-(4-chlorophenyl)-7-((1-(5-fluoropyridin-2-yl)ethyl)carbamoyl)quinoxalin-2-yl)pentanoic acid] gave a pKi ([3H]PGD2 competition, Table B) of 8.70 to 10.00.

For `CC(NC(=O)c1cnc2nc(-c3ccccc3)c(CCCCC(=O)O)nc2c1)c1ccncc1` (centres unmarked) [14H, 5-{3-phenyl-7-[(1-pyridin-4-ylethyl)carbamoyl]pyrido[2,3-b]pyrazin-2-yl} pentanoic acid], under setting [1], the pKi was 6.70 to 7.70.

With `CC(CCc1nc2cc(C(=O)N3CC[C@H](c4ccccc4)C3)ccc2nc1-c1ccc(C(F)(F)F)cc1)CC(=O)O` (stereo partly drawn) [17U, beta-methyl-7-[(3(R)-phenyl-1-pyrrolidinyl)carbonyl]-3-[4-(trifluoromethyl)phenyl]-2-quinoxalinepentanoic acid], the pKi under setting [1] is 7.70 to 8.68.

Turning to `O=C(O)CCCNc1nc2cc(C(=O)N3CCN(c4ccc(F)cc4)CC3)ccc2nc1-c1ccccc1` [44H, 4-((7-(4-(4-fluorophenyl)piperazine-1-carbonyl)-3-phenylquinoxalin-2-yl)amino)butanoic acid], the pKi reads like this: under setting [1], 7.70 to 8.68; ([3H]PGD2 binding, values in text) 8.51.

With `CCc1nnc2n1CCN(C(=O)c1ccc3nc(-c4ccc(Cl)cc4)c(CCCCC(=O)O)nc3c1)C2` [compound 673, 5-(3-(4-chlorophenyl)-7-(3-ethyl-5,6,7,8-tetrahydro-[1,2,4]triazolo[4,3-a]pyrazine-7-carbonyl)quinoxalin-2-yl)pentanoic acid], the pKi ([3H]PGD2 competition, Table B) was 6.70 to 7.70.

`C[C@H](CCCc1nc2cc(C(=O)N[C@H](C)c3ccc(F)cc3)ccc2nc1-c1ccc(F)cc1)C(=O)O` [compound 479] had a pKi ([3H]PGD2 competition, Table B) of 6.70 to 7.70.

For the molecule `O=C(O)CCCCc1nc2cc(C(=O)N[C@@H]3CCCc4ccccc43)ccc2nc1-c1ccccc1` [compound 256, (R)-5-(3-phenyl-7-((1,2,3,4-tetrahydronaphthalen-1-yl)carbamoyl)quinoxalin-2-yl)pentanoic acid], the pKi ([3H]PGD2 competition, Table B) was 8.70 to 10.00.

The molecule `O=C(O)CCCCc1nc2cc(C(=O)N3CCN(c4c(Cl)cncc4Cl)CC3)ccc2nc1-c1ccc(Cl)cc1` [compound 596, 5-(3-(4-chlorophenyl)-7-(4-(3,5-dichloropyridin-4-yl)piperazine-1-carbonyl)quinoxalin-2-yl)pentanoic acid] had a pKi ([3H]PGD2 competition, Table B) of 8.70 to 10.00.

`CC(C)(NC(=O)c1ccc2nc(-c3ccc(Cl)cc3)c(CCCCC(=O)O)nc2c1)c1ccc(F)cc1` [compound 693, 5-(3-(4-chlorophenyl)-7-((2-(4-fluorophenyl)propan-2-yl)carbamoyl)quinoxalin-2-yl)pentanoic acid]: the pKi ([3H]PGD2 competition, Table B) is 7.70 to 8.68.

For `O=C(O)C1CC1CCc1nc2cc(C(=O)N3CCC(c4ccccc4)CC3)ccc2nc1-c1ccccc1` (single isomer, unassigned) [20F, 2-(2-(3-phenyl-7-(4-phenylpiperidine-1-carbonyl)quinoxaline-2-yl)ethyl)cyclopropanecarboxylic acid], the pKi under setting [1] is 7.70 to 8.68.

Molecule `O=C(O)CCCCc1nc2cc(C(=O)N3CCN(c4cnccn4)CC3)ccc2nc1-c1ccc(F)cc1` [compound 360, 5-(3-(4-fluorophenyl) 7-(4-(pyrazin-2-yl)piperazine-1-carbonyl)quinoxalin-2-yl)pentanoic acid] showed a pKi ([3H]PGD2 competition, Table B) of 6.70 to 7.70.
